A short description of this series: Storage stability: creatinine (creatine decomposition product) content after storage. The class given is physicochemical. The settings on record: for Creatinine content / Observations: 40° C., 28 days. The procedure: A creatine-citric acid compound (3:1) (KC) as pure substance and mixtures of this compound (3:1) with 1, 5 and 10% by weight addition of a carbohydrate (CH) were stored for 28 days at 60° C. and then the contents of the creatine decomposition product creatinine were determined.

The mark [1] stands for this setting: Addition: 1% by weight carbohydrate (CH).
Setting [2] is: Addition: 5% by weight carbohydrate (CH).
[3] abbreviates: Addition: 10% by weight carbohydrate (CH).

This note sets out measurements from patent US20050037069A1, “Solid and stable creatine/citric acid composition(s) and compositions carbohydrate(s) or hydrates thereof, method for the production and use thereof” (priority 2002, published 2005).

With `CN(CC(=O)O)C(=N)N.CN(CC(=O)O)C(=N)N.CN(CC(=O)O)C(=N)N.O=C(O)CC(O)(CC(=O)O)C(=O)O` [KC without CH, creatine-citric acid compound (3:1)], the Creatinine content is given as 770 ppm under setting [1], 770 ppm under setting [2] and 770 ppm under setting [3]. The Observations entry is “white” under setting [1], “white” under setting [2] and “white” under setting [3]. In addition, for the setting “reference substance before storage, limit of detection”, the “creatinine content, initial data” value was below 67 ppm.
